From patent publication US12569563B2, “Selective HDAC6 degraders and methods of use thereof” (DANA-FARBER CANCER INSTITUTE, INC., priority 2019, dated 2026)

Tests used:
[1] = system: other identified HDAC proteins; experiment: Multiplexed TMT mass spectrometry proteomics in Kelly cells, other HDAC abundance; type: cell-based, human; settings: 1 μM, 2, 4, 8, and 16 hours
Description: (§1) Lysis buffer (8 M Urea, 50 mM NaCl, 50 mM 4-(2hydroxyethyl)-1-piperazineethanesulfonic acid (EPPS) pH 8.5, protease and phosphatase inhibitors from Roche®) were added to the cell pellets and homogenized by 20 passes through a 21 gauge (1.25 in. long) needle to achieve a cell lysate with a protein concentration between 1-4 mg mL^−1. A micro-BCA assay (Pierce™) was used to determine the final protein concentration in the cell lysate. 200 μg of protein for each sample were reduced and alkylated as described above.
Proteins were precipitated using methanol/chloroform. Four volumes of methanol were added to the cell lysate, followed by one volume of chloroform, and finally three volumes of water. The mixture was vortexed and centrifuged to separate the chloroform phase from the aqueous phase. […]
(§2) Anhydrous ACN was added to each peptide sample to a final concentration of 30% v/v, and labeling was induced with the addition of TMT reagent to each sample at a ratio of 1:4 peptide:TMT label. […] The sample channels were combined at a 1:1:1:1:1:1:1:1:1:1:1 ratio, desalted using Cis solid phase extraction cartridges (Waters) and analyzed by LC-MS for channel ratio comparison. Samples were then combined using the adjusted volumes determined in the channel ratio analysis and dried down in a speed vacuum. […]

HDAC6 = molecular target: T1, HDAC6 (Homo sapiens, UniProt Q9UBN7); experiment: Multiplexed TMT mass spectrometry proteomics in Kelly cells, HDAC6 abundance; type: cell-based; design: endogenous in cells; host or cells: Kelly cells
T1 sequence (Q9UBN7 1-1215): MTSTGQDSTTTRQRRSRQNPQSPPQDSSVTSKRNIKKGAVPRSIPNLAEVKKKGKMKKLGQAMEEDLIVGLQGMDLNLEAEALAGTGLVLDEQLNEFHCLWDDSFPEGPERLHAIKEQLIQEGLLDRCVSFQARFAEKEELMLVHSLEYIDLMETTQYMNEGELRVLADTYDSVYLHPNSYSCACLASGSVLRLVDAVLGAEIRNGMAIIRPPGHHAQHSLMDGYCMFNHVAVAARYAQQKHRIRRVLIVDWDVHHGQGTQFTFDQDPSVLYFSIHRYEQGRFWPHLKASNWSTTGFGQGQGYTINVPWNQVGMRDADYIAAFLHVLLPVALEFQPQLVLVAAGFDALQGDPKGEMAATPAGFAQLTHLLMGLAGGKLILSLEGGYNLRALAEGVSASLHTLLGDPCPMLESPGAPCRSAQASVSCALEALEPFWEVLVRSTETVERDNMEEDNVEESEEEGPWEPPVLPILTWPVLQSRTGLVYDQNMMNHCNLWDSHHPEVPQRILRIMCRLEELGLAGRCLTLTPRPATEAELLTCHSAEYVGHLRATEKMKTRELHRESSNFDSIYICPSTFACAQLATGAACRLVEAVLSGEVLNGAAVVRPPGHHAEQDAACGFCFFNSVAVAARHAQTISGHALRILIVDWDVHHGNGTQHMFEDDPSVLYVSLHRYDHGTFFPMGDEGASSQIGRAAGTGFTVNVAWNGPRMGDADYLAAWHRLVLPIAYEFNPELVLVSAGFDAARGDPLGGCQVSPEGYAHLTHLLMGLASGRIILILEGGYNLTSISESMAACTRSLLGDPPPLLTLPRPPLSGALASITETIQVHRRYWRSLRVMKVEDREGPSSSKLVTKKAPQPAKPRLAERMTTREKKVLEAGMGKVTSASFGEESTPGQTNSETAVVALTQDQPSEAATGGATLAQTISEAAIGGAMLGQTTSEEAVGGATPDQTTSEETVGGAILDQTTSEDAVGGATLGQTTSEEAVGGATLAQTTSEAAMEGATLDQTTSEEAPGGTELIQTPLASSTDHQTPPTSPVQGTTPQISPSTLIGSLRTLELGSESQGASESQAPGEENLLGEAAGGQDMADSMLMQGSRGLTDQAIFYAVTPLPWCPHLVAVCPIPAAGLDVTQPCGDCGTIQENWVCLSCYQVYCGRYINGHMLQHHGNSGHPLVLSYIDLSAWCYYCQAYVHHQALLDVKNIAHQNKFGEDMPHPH
Description: as §1
Proteins were precipitated using methanol/chloroform. Four volumes of methanol were added to the cell lysate, followed by one volume of chloroform, and finally three volumes of water. The mixture was vortexed and centrifuged to separate the chloroform phase from the aqueous phase. The precipitated protein was washed with three volumes of methanol, centrifuged and the resulting washed precipitated protein was allowed to air dry. The precipitated protein was resuspended in 4 M Urea, 50 mM HEPES pH 7.4, followed by dilution to 1 M urea with the addition of 200 mM EPPS, pH 8. Proteins were first digested with LysC (1:50; enzyme:protein) for 12 hours at room temperature. The LysC digestion was diluted to 0.5 M Urea with 200 mM EPPS pH 8 followed by digestion with trypsin (1:50; enzyme:protein) for 6 hours at 37° C. Tandem mass tag (TMT) reagents (Thermo Fisher Scientific™) were dissolved in anhydrous acetonitrile (ACN) according to manufacturer's instructions.
as §2

CN(C(=O)CCCNc1cccc2c1C(=O)N(C1CCC(=O)NC1=O)C2=O)c1ccc(NC(=O)CCCCCCC(=O)NO)cc1 (stereo not shown) [Compound 1, N^1-(4-(4-((2-(2,6-dioxopiperidin-3-yl)-1,3-dioxoisoindolin-4-yl)amino)-N-methylbutanamido)phenyl)-N^8-hydroxyoctanediamide]
change in cellular protein levels of other identified HDAC proteins (heat map FIG. 5) [1]: did not affect the cellular protein levels of the other identified HDAC proteins
change in cellular HDAC6 protein levels vs DMSO (heat map FIG. 5) (HDAC6; 1 μM, 2, 4, 8, and 16 hours): induced down regulation of cellular HDAC6 protein levels
change in HDAC6 protein levels vs DMSO, time course (FIG. 4) (HDAC6; 1 μM, after 2 hours): significant reduction in HDAC6 protein levels
course of HDAC6 protein levels, time course (FIG. 4) (HDAC6; 1 μM, over the course of 16 hours): continued to decrease
